The test system of assay [1] is ATH-8 cell line. The assay can be described thus: Minimum inhibitory concentration of the compound, achieving a complete protection of ATH8 cells against the cytopathic effect of HTLV-III / LAV […]. The assay is classed as functional. Conditions: Homo sapiens. Background: Cytopathic effects are the visible damage that an infection or toxin causes in cultured cells.

The subject of assay [2] is ATH-8 cell line. The assay can be described thus: Selectivity index expressed as ratio of compound concentration required to reduce the growth of normal uninfected ATH8 cells by 50% to the compound concentration (MIC). The assay is classed as functional, Homo sapiens.

The values that follow come from ChEMBL document CHEMBL1123357, “Chemotherapeutic approaches to the treatment of the acquired immune deficiency syndrome (AIDS)” (1986).

In brackets after ≈: the same amount, converted by molar mass. Bounds are passed on as bounds.

`O=C(O)C1=CC(=C(c2ccc(O)c(C(=O)O)c2)c2ccc(O)c(C(=O)O)c2)C=CC1=O` [AURINTRICARBOXYLIC ACID] had an MIC against ATH-8 cell line [1] of 47 µM (≈ 19.9 µg/mL). Moreover, the SI in the assay with ATH-8 cell line [2] is listed as over 2.5.

Take `Cc1cc(-c2ccc(/N=N/c3ccc4c(S(=O)(=O)[O-])cc(S(=O)(=O)[O-])c(N)c4c3O)c(C)c2)ccc1/N=N/c1ccc2c(S(=O)(=O)[O-])cc(S(=O)(=O)[O-])c(N)c2c1O.[Na+].[Na+].[Na+].[Na+]` [EVANS BLUE]: in the assay with ATH-8 cell line [1], the MIC amounted to 26 µM. The SI with ATH-8 cell line [2] was over 4.

For `O=C(O)P(=O)(O)O` [FOSCARNET], the MIC in the assay on ATH-8 cell line [1] is 350 µM (≈ 44.1 µg/mL). For the same compound, the SI with ATH-8 cell line [2] was over 1.

As for `NC(=O)c1ncn([C@@H]2O[C@H](CO)[C@@H](O)[C@H]2O)n1` [RIBAVIRIN], the MIC in the assay on ATH-8 cell line [1] is over 400 µM. The SI with ATH-8 cell line [2] was under 0.3.

`Cc1ccc(C(=O)Nc2ccc(S(=O)(=O)O)c3cc(S(=O)(=O)O)cc(S(=O)(=O)O)c23)cc1NC(=O)c1cccc(NC(=O)Nc2cccc(C(=O)Nc3cc(C(=O)Nc4ccc(S(=O)(=O)O)c5cc(S(=O)(=O)O)cc(S(=O)(=O)O)c45)ccc3C)c2)c1` [SURAMIN] showed an MIC against ATH-8 cell line [1] of 35 µM (≈ 45.4 µg/mL). The SI in the assay on ATH-8 cell line [2] was found to be 5.

`Nc1ccn([C@H]2CC[C@@H](CO)O2)c(=O)n1` [ZALCITABINE] displayed an MIC against ATH-8 cell line [1] of 0.5 µM (≈ 0.106 µg/mL). Besides, the SI with ATH-8 cell line [2] turned out to be 50.

As for `Cc1cn([C@H]2C[C@H](N=[N+]=[N-])[C@@H](CO)O2)c(=O)[nH]c1=O` [ZIDOVUDINE], in the assay with ATH-8 cell line [1], the MIC came out at 1 µM (≈ 0.267 µg/mL). Besides, the SI in the assay with ATH-8 cell line [2] is given as over 50.
